Experiment: PN001/Part I: safety and tolerability
Type: in vivo, human
From the text: Safety was monitored throughout by adverse events, vital signs, and repeated clinical and laboratory evaluations. […] All adverse events were mild or moderate and severity and transient.

## CC(C)c1ccc(CC(=O)N[C@H](C)c2ccc(OCC(F)(F)F)cn2)cc1 [CX-8998]
4 mg
  Abnormal physical sensation: 0 n (%)
  At least 1 adverse event: 1 (16.7) n (%)
  Dizziness: 0 n (%)
  Drowsiness: 0 n (%)
  Elevated mood: 0 n (%)
  Euphoric mood: 0 n (%)
  Eye Disorders: 1 (16.7) n (%)
  Fatigue: 0 n (%)
  Feeling abnormal: 1 (16.7) n (%)
  Floating feeling: 0 n (%)
  Gastro-intestinal Disorders: 0 n (%)
  Hangover effect: 0 n (%)
  Headache: 0 n (%)
  Indifference: 0 n (%)
  Injury, Poisoning and Procedural Complications: 0 n (%)
  Insomnia: 0 n (%)
  Intoxication: 0 n (%)
  Irritability: 0 n (%)
  Lethargy: 0 n (%)
  Nervous System Disorders: 0 n (%)
  Paraesthesia: 0 n (%)
  Paraesthesia oral: 0 n (%)
  Paraesthesia tongue: 0 n (%)
  Psychiatric Disorders: 0 n (%)
  Racing thoughts: 0 n (%)
  Relaxed: 0 n (%)
  Sensory disturbance: 0 n (%)
  Vision blurred: 0 n (%)
  Visual disturbance: 1 (16.7) n (%)
  Vivid dreams: 0 n (%)
8 mg
  Abnormal physical sensation: 0 n (%)
  At least 1 adverse event: 1 (16.7) n (%)
  Dizziness: 0 n (%)
  Drowsiness: 0 n (%)
  Elevated mood: 0 n (%)
  Euphoric mood: 0 n (%)
  Eye Disorders: 1 (16.7) n (%)
  Fatigue: 0 n (%)
  Feeling abnormal: 0 n (%)
  Floating feeling: 0 n (%)
  Gastro-intestinal Disorders: 1 (16.7) n (%)
  Hangover effect: 0 n (%)
  Headache: 0 n (%)
  Indifference: 0 n (%)
  Injury, Poisoning and Procedural Complications: 0 n (%)
  Insomnia: 0 n (%)
  Intoxication: 0 n (%)
  Irritability: 0 n (%)
  Lethargy: 0 n (%)
  Nervous System Disorders: 1 (16.7) n (%)
  Paraesthesia: 0 n (%)
  Paraesthesia oral: 1 (16.7) n (%)
  Paraesthesia tongue: 0 n (%)
  Psychiatric Disorders: 0 n (%)
  Racing thoughts: 0 n (%)
  Relaxed: 0 n (%)
  Sensory disturbance: 0 n (%)
  Vision blurred: 0 n (%)
  Visual disturbance: 1 (16.7) n (%)
  Vivid dreams: 0 n (%)
8 mg evening
  Abnormal physical sensation: 1 (16.7) n (%)
  At least 1 adverse event: 5 (83.3) n (%)
  Dizziness: 0 n (%)
  Drowsiness: 1 (16.7) n (%)
  Elevated mood: 2 n (%)
  Euphoric mood: 2 n (%)
  Eye Disorders: 1 (16.7) n (%)
  Fatigue: 0 n (%)
  Feeling abnormal: 1 (16.7) n (%)
  Floating feeling: 0 n (%)
  Gastro-intestinal Disorders: 0 n (%)
  Hangover effect: 0 n (%)
  Headache: 1 (16.7) n (%)
  Indifference: 0 n (%)
  Injury, Poisoning and Procedural Complications: 0 n (%)
  Insomnia: 0 n (%)
  Intoxication: 0 n (%)
  Irritability: 0 n (%)
  Lethargy: 0 n (%)
  Nervous System Disorders: 3 (50.0) n (%)
  Paraesthesia: 1 (16.7) n (%)
  Paraesthesia oral: 0 n (%)
  Paraesthesia tongue: 0 n (%)
  Psychiatric Disorders: 4 n (%)
  Racing thoughts: 1 (16.7) n (%)
  Relaxed: 0 n (%)
  Sensory disturbance: 0 n (%)
  Vision blurred: 1 (16.7) n (%)
  Visual disturbance: 0 n (%)
  Vivid dreams: 1 (16.7) n (%)

From patent US11311522B1 (Cavion, Inc., priority 2018, dated 2022)
